Data as given in US20080194585A1, “Fungicidal Pyrazine Derivatives” (priority 2005, published 2008).
Marks after values point to notes of the source that are not given here.

Assays:
Details in all cases: 100 = 100% disease control
[1] = tested on: Puccinia recondita f. sp. tritici; test: Test K: wheat leaf rust, preventive spray on wheat seedlings
Septoria tritici = test: Test J: wheat leaf blotch, preventive spray on wheat seedlings; format: in vivo
Source text: A dash (-) indicates no test results.

Botrytis cinerea = test: Test E: tomato botrytis, preventive spray on tomato seedlings
Pythium aphanidermatum = test: Test A: bluegrass pythium blight, preventive spray on bluegrass seedlings
Septoria nodorum = test: Test H: wheat glum blotch, preventive spray on wheat seedlings
Experimental: (the causal agent of wheat glum blotch) and incubated in a saturated atmosphere at 20° C. for 48 h, and then moved to a growth chamber at 22° C. for 5 days, after which disease ratings were made.

Rhizoctonia oryzae = test: Test G: turf brown patch, preventive spray on creeping bent grass seedlings
Experimental: (the causal agent of turf brown patch) and incubated in a saturated atmosphere at 27° C. for 24 h, and then moved to a growth chamber at 27° C. for 5 days, after which disease ratings were made.

Plasmopara viticola = test: Test D: grape downy mildew, spray after inoculation of grape seedlings; format: in vivo
Source text: Upon removal, disease ratings were made. […] A dash (-) indicates no test results.

Phytophthora infestans = test: whole plant or invertebrate; format: in vivo
[2] = tested on: Colletotrichum orbiculare; test: Test B: cucumber Colletotrichum anthracnose, preventive spray on cucumber seedlings
[3] = tested on: Erysiphe graminis f. sp. tritici; test: Test L: wheat powdery mildew, preventive spray on wheat seedlings
fusarium graminearium = test: Test I: wheat head scab, preventive spray on wheat seedlings
Experimental: (the causal agent of wheat head scab) and incubated in a saturated atmosphere at 20° C. for 72 h, and then moved to a growth chamber at 22° C. for 5 days, after which disease ratings were made.

[4] = 40 ppm (marked *), 0 = no control
[5] = 200 ppm, 0 = no control relative to controls

SMILES | Test K disease control rating [1, 4] | Test J disease control rating (Septoria tritici; [4]) | Test E disease control rating (Botrytis cinerea; [4]) | Test A disease control rating (Pythium aphanidermatum; [4]) | Test H disease control rating (Septoria nodorum; [4]) | Test G disease control rating (Rhizoctonia oryzae; [4]) | Test D disease control rating (Plasmopara viticola; [4]) | Test F disease control rating (Phytophthora infestans; [4]) | Test B disease control rating [2, 4] | Test L disease control rating [3, 4] | Test I disease control rating (fusarium graminearium; [4]) | also measured
Cc1cccc(-n2c(-c3c(F)cccc3F)c(Cl)nc(-n3cccn3)c2=O)c1C [compound 378] | 98* % | 100* % | 98* % | 0* % | 98* % | 51* % | 0* % | 0* % | 0* % | 91* % | 0* % | –
Cc1ccn(-c2nc(Cl)c(-c3c(F)cccc3F)n(-c3cccc(C)c3C)c2=O)n1 [compound 379] | 95* % | 100* % | 98* % | 0* % | 90* % | 0* % | 0* % | 0* % | 0* % | 40* % | 0* % | –
O=c1c(-n2cccn2)nc(Cl)c(-c2c(F)cccc2F)n1-c1cccc(F)c1F [compound 380] | 100* % | 99* % | 99* % | 0* % | 99* % | – | 0* % | 0* % | 96* % | 99* % | 60* % | Test G disease control rating (Rhizoctonia oryzae; [5]): 60%
Cc1ccn(-c2nc(Cl)c(-c3c(F)cccc3F)n(-c3cccc(F)c3F)c2=O)n1 [compound 381] | 100* % | 100* % | 100* % | 0* % | 99* % | 16* % | 0* % | 0* % | 78* % | 76* % | 0* % | –
O=c1c(-n2cccn2)nc(Cl)c(-c2c(F)cccc2F)n1-c1ccc(F)cc1 [compound 382] | 100* % | 100* % | 99* % | 0* % | 99* % | – | 0* % | 0* % | 63* % | 50* % | 0* % | Test G disease control rating (Rhizoctonia oryzae; [5]): 16%
Cc1ccn(-c2nc(Cl)c(-c3c(F)cccc3F)n(-c3ccc(F)cc3)c2=O)n1 [compound 383] | 100* % | 100* % | 99* % | 0* % | 100* % | 49* % | 0* % | 0* % | 63* % | 99* % | 0* % | –
O=c1c(-n2cccn2)nc(Cl)c(-c2c(F)cccc2F)n1-c1cc(F)cc(F)c1 [compound 384] | 100* % | 98* % | 99* % | 0* % | 99* % | 47* % | 15* % | 0* % | 90* % | 59* % | 0* % | –
Cc1ccn(-c2nc(Cl)c(-c3c(F)cccc3F)n(-c3cc(F)cc(F)c3)c2=O)n1 [compound 385] | 100* % | 100* % | 99* % | 0* % | 99* % | 78* % | 0* % | 0* % | 99* % | 89* % | 0* % | –
O=c1c(-n2cccn2)nc(Cl)c(-c2c(F)cccc2F)n1-c1ccc(F)cc1F [compound 386] | 100* % | 96* % | 99* % | 0* % | 100* % | 99* % | 57* % | 0* % | 87* % | 68* % | 0* % | –
Cc1ccn(-c2nc(Cl)c(-c3c(F)cccc3F)n(-c3ccc(F)cc3F)c2=O)n1 [compound 387] | 100* % | 99* % | 99* % | 0* % | 89* % | 60* % | 0* % | 0* % | 0* % | 0* % | 0* % | –
CC(C)Cn1c(-c2c(Cl)cc(C(F)(F)F)cc2Cl)c(Cl)nc(-n2cccn2)c1=O [compound 391] | 88* % | 33* % | 0* % | 0* % | 0* % | 0* % | 0* % | 0* % | 0* % | 0* % | 0* % | –
CCC(C)Cn1c(-c2c(F)cc(F)cc2F)c(Cl)nc(C(=O)NOC)c1=O (stereo not shown) [compound 417] | 100* % | – | 99* % | – | 60* % | 0* % | – | – | 71* % | – | – | Test J disease control rating (Septoria tritici; [5]): 0%; Test A disease control rating (Pythium aphanidermatum; [5]): 0%; Test D disease control rating (Plasmopara viticola; [5]): 86%; Test F disease control rating (Phytophthora infestans; [5]): 93%; Test L disease control rating [3, 5]: 76%; Test I disease control rating (fusarium graminearium; [5]): 0%
CC(=O)Nc1nc(Cl)c(-c2c(F)cccc2F)n(CC(C)C)c1=O [compound 423] | – | 46* % | – | – | – | – | – | – | – | – | – | Test K disease control rating [1, 5]: 97%; Test E disease control rating (Botrytis cinerea; [5]): 100%; Test A disease control rating (Pythium aphanidermatum; [5]): 0%; Test H disease control rating (Septoria nodorum; [5]): 0%; Test G disease control rating (Rhizoctonia oryzae; [5]): 95%; Test D disease control rating (Plasmopara viticola; [5]): 0%; Test F disease control rating (Phytophthora infestans; [5]): 0%; Test B disease control rating [2, 5]: 0%; Test L disease control rating [3, 5]: 97%; Test I disease control rating (fusarium graminearium; [5]): 60%
Cc1nc(C#N)c(=N)n(CC(C)C)c1-c1ccc(F)cc1F [compound 425] | – | – | – | – | – | – | – | – | – | – | – | Test K disease control rating [1, 5]: 0%; Test J disease control rating (Septoria tritici; [5]): 3%; Test E disease control rating (Botrytis cinerea; [5]): 0%; Test A disease control rating (Pythium aphanidermatum; [5]): 0%; Test H disease control rating (Septoria nodorum; [5]): 0%; Test G disease control rating (Rhizoctonia oryzae; [5]): 0%; Test D disease control rating (Plasmopara viticola; [5]): 0%; Test F disease control rating (Phytophthora infestans; [5]): 16%; Test B disease control rating [2, 5]: 0%; Test L disease control rating [3, 5]: 0%; Test I disease control rating (fusarium graminearium; [5]): 0%
